Measurements from US20060281071A1, “Stearoyl-CoA desaturase assay” (priority 2005, published 2006).
Values joined by “and” are separate entries in the source; they are usually repeats but may differ in a detail not shown here. Identical values can stand only once. Like-named read-outs stand apart in the source and are kept apart here.

How the values were obtained:
[1] = molecular target: T1, mSCD3 (Mus musculus, UniProt Q99PL7, V119A); assay: Conversion of saturated fatty acids to Δ9 monounsaturated fatty acids in ole1 yeast L8-14C expressing mSCD3 (GLC); format: cell-based; parameters: Cloning of the full-length human and mouse SCD cDNAs: The full coding region of human SCDs; expressed in transfected cells; host or cells: Saccharomyces cerevisiae L8-14C (ole1 disruptant), vector p426GPD
T1 sequence (Q99PL7 1-359 V119A): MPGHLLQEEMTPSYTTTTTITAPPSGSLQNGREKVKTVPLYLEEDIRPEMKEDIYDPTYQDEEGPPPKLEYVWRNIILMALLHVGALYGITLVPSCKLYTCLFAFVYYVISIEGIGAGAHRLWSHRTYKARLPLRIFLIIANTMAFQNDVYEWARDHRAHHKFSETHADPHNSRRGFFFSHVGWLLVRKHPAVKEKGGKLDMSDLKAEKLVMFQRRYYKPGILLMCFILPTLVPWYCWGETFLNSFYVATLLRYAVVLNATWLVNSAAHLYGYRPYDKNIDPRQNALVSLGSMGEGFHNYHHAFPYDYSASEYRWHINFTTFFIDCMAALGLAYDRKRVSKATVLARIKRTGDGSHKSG

[2] = molecular target: T2, hSCD5 (Homo sapiens, UniProt Q86SK9); assay: Conversion of saturated fatty acids to Δ9 monounsaturated fatty acids in ole1 yeast L8-14C expressing hSCD5 (GLC); format: cell-based; parameters: Cloning of the full-length human and mouse SCD cDNAs: The full coding region of human SCDs; expressed in transfected cells; host or cells: Saccharomyces cerevisiae L8-14C (ole1 disruptant), vector p426GPD; settings: for % conversion of fatty acid to Δ9 monounsaturated fatty acid: endogenous fatty acid, L8-14C transformant, YPD lacking unsaturated fatty acids, 3 days
T2 sequence (Q86SK9 1-330): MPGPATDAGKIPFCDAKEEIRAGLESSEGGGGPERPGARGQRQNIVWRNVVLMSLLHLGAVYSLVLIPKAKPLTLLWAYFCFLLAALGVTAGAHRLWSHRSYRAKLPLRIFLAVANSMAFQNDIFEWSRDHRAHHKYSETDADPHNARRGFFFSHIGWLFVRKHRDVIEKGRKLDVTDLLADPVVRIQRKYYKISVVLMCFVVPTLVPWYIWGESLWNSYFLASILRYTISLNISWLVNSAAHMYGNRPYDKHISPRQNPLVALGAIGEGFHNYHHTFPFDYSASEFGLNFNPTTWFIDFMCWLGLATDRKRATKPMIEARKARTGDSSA
Source text: (§1) Functional Analysis: The p426GPD constructs harboring either human or mouse SCDs were transformed into Saccharomyces cerevisiae strain L8-14C (provided by Professor Charles Martin, Division of Life Sciences, Department of Cell Biology and Neuroscience, Rutgers University, Nelson Laboratories), which contains a disruption of the yeast Δ9-desaturase gene ole1 and requires unsaturated fatty acids for growth (Stukey, J. E. et al. (1990) J Biol Chem 265, 20144-20149), by using a Lithium acetate standard methods (Elble, R. (1992) Biotechniques 13, 18-20). The transformed yeast cells were plated onto a synthetic dextrose medium containing 1% tergitol NP-40, 0.5 mM oleic acid, and 0.5 mM palmitoleic acid but lacking uracil. To test the genetic complementation of the mutant yeast strain, transformed yeast cells were plated onto YPD (Yeast Extract/Peptone/Dextrose) medium lacking unsaturated fatty acids. Plates were incubated at 30° C. for 3 days.
(§2) Fatty acid analysis: Yeast cells were grown in liquid YPD medium lacking unsaturated fatty acids for 3 days. Cells were pelleted and washed twice with water, followed by suspension in 0.5 ml of 2M NaOH in methanol. The mixture was then heated to 80° C. for 1 h and acidified with formic acid. Fatty acids were extracted according to Bligh & Dyer's method and trans-methylated with 1 ml of 14% BF3 in methanol (Sigma). The resulting fatty acid methyl esters were extracted with hexane and analyzed by gas-liquid chromatography (GLC) (Miyazaki, M. et al. (2001) J Biol Chem 276, 39455-39461; and Elble, R. (1992) Biotechniques 13, 18-20). The double bond positions of the monounsaturated fatty acid pyrrolidide derivatives were analyzed by tandem GC-MS as described in Miyazaki, M. et al. (2002) J Lipid Res 43, 2146-2154, incorporated by reference in its entirety. Exogenous saturated fatty acids (0.2 mM) were added into YPD in presence of 1% Tergitol NP-40 (Sigma).

[3] = molecular target: T3, mSCD1 (Mus musculus, UniProt P13516); assay: Conversion of saturated fatty acids to Δ9 monounsaturated fatty acids in ole1 yeast L8-14C expressing mSCD1 (GLC); format: cell-based; parameters: Cloning of the full-length human and mouse SCD cDNAs: The full coding region of human SCDs; expressed in transfected cells; host or cells: Saccharomyces cerevisiae L8-14C (ole1 disruptant), vector p426GPD; settings: for conversion of exogenous saturated fatty acid to Δ9 monounsaturated fatty acid: exogenous fatty acid 0.2 mM, 1% tergitol NP-40, yeast cultured 2 days (FIG. 2); for % conversion of fatty acid to Δ9 monounsaturated fatty acid: endogenous fatty acid, L8-14C transformant, YPD lacking unsaturated fatty acids, 3 days
T3 sequence (P13516 1-355): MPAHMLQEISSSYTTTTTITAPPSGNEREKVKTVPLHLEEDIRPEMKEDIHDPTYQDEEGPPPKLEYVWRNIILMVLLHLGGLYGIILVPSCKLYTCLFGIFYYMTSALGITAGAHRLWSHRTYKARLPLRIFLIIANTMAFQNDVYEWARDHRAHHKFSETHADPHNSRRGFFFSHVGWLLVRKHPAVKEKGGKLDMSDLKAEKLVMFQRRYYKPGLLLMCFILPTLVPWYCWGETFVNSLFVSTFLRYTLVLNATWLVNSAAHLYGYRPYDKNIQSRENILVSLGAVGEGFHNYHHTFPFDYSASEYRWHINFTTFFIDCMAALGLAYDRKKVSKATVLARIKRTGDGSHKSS

[4] = molecular target: T4, hSCD1 (Homo sapiens, UniProt O00767); assay: Conversion of saturated fatty acids to Δ9 monounsaturated fatty acids in ole1 yeast L8-14C expressing hSCD1 (GLC); format: cell-based; parameters: Cloning of the full-length human and mouse SCD cDNAs: The full coding region of human SCDs; expressed in transfected cells; host or cells: Saccharomyces cerevisiae L8-14C (ole1 disruptant), vector p426GPD; settings: for conversion of exogenous saturated fatty acid to Δ9 monounsaturated fatty acid: exogenous fatty acid 0.2 mM, 1% tergitol NP-40, yeast cultured 2 days (FIG. 2); for % conversion of fatty acid to Δ9 monounsaturated fatty acid: endogenous fatty acid, L8-14C transformant, YPD lacking unsaturated fatty acids, 3 days
T4 sequence (O00767 1-359): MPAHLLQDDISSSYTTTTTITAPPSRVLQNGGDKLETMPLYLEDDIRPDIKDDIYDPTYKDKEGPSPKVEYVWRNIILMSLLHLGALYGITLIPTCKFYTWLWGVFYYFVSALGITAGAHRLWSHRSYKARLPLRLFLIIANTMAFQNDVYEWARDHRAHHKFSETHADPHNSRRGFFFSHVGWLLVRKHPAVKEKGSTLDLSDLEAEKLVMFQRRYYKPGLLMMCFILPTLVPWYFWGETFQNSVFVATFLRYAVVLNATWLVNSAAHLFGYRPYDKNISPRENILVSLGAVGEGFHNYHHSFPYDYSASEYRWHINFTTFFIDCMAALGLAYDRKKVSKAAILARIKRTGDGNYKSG

[5] = molecular target: T5, mSCD2 (Mus musculus, UniProt P13011); assay: Conversion of saturated fatty acids to Δ9 monounsaturated fatty acids in ole1 yeast L8-14C expressing mSCD2 (GLC); format: cell-based; parameters: Cloning of the full-length human and mouse SCD cDNAs: The full coding region of human SCDs; expressed in transfected cells; host or cells: Saccharomyces cerevisiae L8-14C (ole1 disruptant), vector p426GPD; settings: for conversion of exogenous saturated fatty acid to Δ9 monounsaturated fatty acid: exogenous fatty acid 0.2 mM, 1% tergitol NP-40, yeast cultured 2 days (FIG. 2); for % conversion of fatty acid to Δ9 monounsaturated fatty acid: endogenous fatty acid, L8-14C transformant, YPD lacking unsaturated fatty acids, 3 days
T5 sequence (P13011 1-358): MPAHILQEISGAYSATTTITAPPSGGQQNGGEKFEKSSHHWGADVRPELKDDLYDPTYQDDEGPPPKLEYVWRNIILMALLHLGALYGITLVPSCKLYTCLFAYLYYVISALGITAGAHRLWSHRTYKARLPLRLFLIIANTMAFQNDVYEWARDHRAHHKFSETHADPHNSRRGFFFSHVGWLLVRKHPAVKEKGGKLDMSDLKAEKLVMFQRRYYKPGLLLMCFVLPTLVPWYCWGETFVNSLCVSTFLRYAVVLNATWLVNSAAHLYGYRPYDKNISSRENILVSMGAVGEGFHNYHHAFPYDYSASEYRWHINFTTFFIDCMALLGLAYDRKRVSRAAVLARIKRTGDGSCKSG

[6] = test system: mSCD4; assay: Conversion of saturated fatty acids to Δ9 monounsaturated fatty acids in ole1 yeast L8-14C expressing mSCD4 (GLC); format: cell-based, mouse; settings: for conversion of exogenous saturated fatty acid to Δ9 monounsaturated fatty acid: exogenous fatty acid 0.2 mM, 1% tergitol NP-40, yeast cultured 2 days (FIG. 2); for % conversion of fatty acid to Δ9 monounsaturated fatty acid: endogenous fatty acid, L8-14C transformant, YPD lacking unsaturated fatty acids, 3 days
Source text: as §1
as §2, with “Cells” for “Fatty acid analysis: Yeast cells were grown in liquid YPD medium lacking unsaturated fatty acids for 3 days. Cells”

[7] = exogenous fatty acid 0.2 mM, 1% tergitol NP-40, yeast cultured 2 days (FIG. 2)
[8] = yeast transformant, endogenous fatty acids

CCCCCCCCCCCC(=O)O [12:0, lauric acid]
conversion of exogenous saturated fatty acid to Δ9 monounsaturated fatty acid [1]: 14%
conversion of exogenous saturated fatty acid to Δ9 monounsaturated fatty acid [2]: did not desaturate

CCCCCCCCCCCCC(=O)O [13:0, tridecanoic acid]
conversion of exogenous saturated fatty acid to Δ9 monounsaturated fatty acid [3]: 13%
conversion of exogenous saturated fatty acid to Δ9 monounsaturated fatty acid [2, 7]: did not desaturate
conversion of exogenous saturated fatty acid to Δ9 monounsaturated fatty acid [4]: 9%
conversion of exogenous saturated fatty acid to Δ9 monounsaturated fatty acid [5]: 14%

CCCCCCCCCCCCCC(=O)O [14:0, myristic acid]
conversion of exogenous saturated fatty acid to Δ9 monounsaturated fatty acid [6]: 2.9%
conversion of exogenous saturated fatty acid to Δ9 monounsaturated fatty acid [3]: 11%
conversion of exogenous saturated fatty acid to Δ9 monounsaturated fatty acid [2, 7]: less than 5%
conversion of exogenous saturated fatty acid to Δ9 monounsaturated fatty acid [4]: 18%
conversion of exogenous saturated fatty acid to Δ9 monounsaturated fatty acid [5]: 14%

CCCCCCCCCCCCCCCC(=O)O [16:0]
% conversion of fatty acid to Δ9 monounsaturated fatty acid [6]: 9.7%
% conversion of fatty acid to Δ9 monounsaturated fatty acid [3]: 36.4%
% conversion of fatty acid to Δ9 monounsaturated fatty acid [2]: 19.9%
% conversion of fatty acid to Δ9 monounsaturated fatty acid [4]: 43.8%
% conversion of fatty acid to Δ9 monounsaturated fatty acid [5]: 51.4%

CCCCCCCCCCCCCCCCC(=O)O [17:0, heptadecanoic acid]
conversion of exogenous saturated fatty acid to Δ9 monounsaturated fatty acid [6]: 5.7%
conversion of exogenous saturated fatty acid to Δ9 monounsaturated fatty acid [3]: 43%
conversion of exogenous saturated fatty acid to Δ9 monounsaturated fatty acid [2, 7]: 31%
conversion of exogenous saturated fatty acid to Δ9 monounsaturated fatty acid [4]: 35%
conversion of exogenous saturated fatty acid to Δ9 monounsaturated fatty acid [5]: 31%

CCCCCCCCCCCCCCCCCC(=O)O [18:0]
% conversion of fatty acid to Δ9 monounsaturated fatty acid [6]: 16.8%
% conversion of fatty acid to Δ9 monounsaturated fatty acid [3]: 85% and 84.8%
% conversion of fatty acid to Δ9 monounsaturated fatty acid [2]: 86.6%
conversion of 18:0 to 18:1Δ9 relative to that of 16:0 [2, 8]: more than 4 fold
% conversion of fatty acid to Δ9 monounsaturated fatty acid [4]: 75.0%
conversion towards 18:0 relative to 16:0 [4, 8]: 1.7 fold
% conversion of fatty acid to Δ9 monounsaturated fatty acid [5]: 77% and 77.3%

CCCCCCCCCCCCCCCCCCCC(=O)O [C20:0, eicosanoic acid]
conversion of exogenous saturated fatty acid to Δ9 monounsaturated fatty acid [6]: None of Δ9-desaturase was able to utilize
conversion of exogenous saturated fatty acid to Δ9 monounsaturated fatty acid [3]: None of Δ9-desaturase was able to utilize
conversion of exogenous saturated fatty acid to Δ9 monounsaturated fatty acid [2, 7]: None of Δ9-desaturase was able to utilize
conversion of exogenous saturated fatty acid to Δ9 monounsaturated fatty acid [4]: None of Δ9-desaturase was able to utilize
conversion of exogenous saturated fatty acid to Δ9 monounsaturated fatty acid [5]: None of Δ9-desaturase was able to utilize
